Test results as given in the supplement of paper PMC8741786.
≈ marks a conversion by molar mass, not a printed value.

Test system: Neisseria subflava/flavescens/perflava
Experiment: minimum inhibitory concentration (ETEST)
Conditions: population: general population, antibiotic use in previous 6 months: No
Description: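 Oropharyngeal Neisseria isolates from MSM and employees in Belgium were identified to species by MALDI-TOF MS. MICs of azithromycin, ceftriaxone and ciprofloxacin were determined by ETEST on GC agar after 24 h at 36.5 °C and 5-7% CO2, in mg/L. Values beyond the strip range are reported as >256 (azithromycin) or <0.016 (ceftriaxone); isolates that did not grow are NA.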

CO/N=C(\C(=O)N[C@@H]1C(=O)N2C(C(=O)O)=C(CSc3nc(=O)c(O)nn3C)CS[C@H]12)c1csc(N)n1 [ceftriaxone]
minimum inhibitory concentration (isolate id (sample isolate): Co000767_7): 0.047 mg/L (≈ 0.0847 µM) | minimum inhibitory concentration (isolate id (sample isolate): Co000768_1): 0.023 mg/L (≈ 0.0415 µM) | minimum inhibitory concentration (isolate id (sample isolate): Co000768_2): 0.023 mg/L (≈ 0.0415 µM) | minimum inhibitory concentration (isolate id (sample isolate): Co000769_1): 0.047 mg/L (≈ 0.0847 µM) | minimum inhibitory concentration (isolate id (sample isolate): Co000769_2): 0.023 mg/L (≈ 0.0415 µM) | minimum inhibitory concentration (isolate id (sample isolate): Co000769_4): 0.064 mg/L (≈ 0.115 µM) | minimum inhibitory concentration (isolate id (sample isolate): Co000770_2): 0.032 mg/L (≈ 0.0577 µM) | minimum inhibitory concentration (isolate id (sample isolate): Co000770_4): 0.032 mg/L (≈ 0.0577 µM) | minimum inhibitory concentration (isolate id (sample isolate): Co000770_6): 0.032 mg/L (≈ 0.0577 µM) | minimum inhibitory concentration (isolate id (sample isolate): Co000771_2): 0.064 mg/L (≈ 0.115 µM) | minimum inhibitory concentration (isolate id (sample isolate): Co000771_3): 0.016 mg/L (≈ 0.0289 µM) | minimum inhibitory concentration (isolate id (sample isolate): Co000771_5): 0.064 mg/L (≈ 0.115 µM) | minimum inhibitory concentration (isolate id (sample isolate): Co000772_1): 0.064 mg/L (≈ 0.115 µM) | minimum inhibitory concentration (isolate id (sample isolate): Co000772_2): 0.064 mg/L (≈ 0.115 µM) | minimum inhibitory concentration (isolate id (sample isolate): Co000772_4): 0.023 mg/L (≈ 0.0415 µM) | minimum inhibitory concentration (isolate id (sample isolate): Co000772_5): 0.023 mg/L (≈ 0.0415 µM) | minimum inhibitory concentration (isolate id (sample isolate): Co000772_6): 0.016 mg/L (≈ 0.0289 µM) | minimum inhibitory concentration (isolate id (sample isolate): Co000773_1): 0.064 mg/L (≈ 0.115 µM) | minimum inhibitory concentration (isolate id (sample isolate): Co000773_2): 0.064 mg/L (≈ 0.115 µM) | minimum inhibitory concentration (isolate id (sample isolate): Co000774_2): 0.016 mg/L (≈ 0.0289 µM) | minimum inhibitory concentration (isolate id (sample isolate): Co000775_1): 0.032 mg/L (≈ 0.0577 µM) | minimum inhibitory concentration (isolate id (sample isolate): Co000775_2): 0.047 mg/L (≈ 0.0847 µM) | minimum inhibitory concentration (isolate id (sample isolate): Co000775_3): 0.094 mg/L (≈ 0.169 µM) | minimum inhibitory concentration (isolate id (sample isolate): Co000776_2): 0.125 mg/L (≈ 0.225 µM) | minimum inhibitory concentration (isolate id (sample isolate): Co000776_3): 0.125 mg/L (≈ 0.225 µM) | minimum inhibitory concentration (isolate id (sample isolate): Co000777_1): 0.064 mg/L (≈ 0.115 µM) | minimum inhibitory concentration (isolate id (sample isolate): Co000777_2): 0.047 mg/L (≈ 0.0847 µM) | minimum inhibitory concentration (isolate id (sample isolate): Co000777_4): 0.047 mg/L (≈ 0.0847 µM) | minimum inhibitory concentration (isolate id (sample isolate): Co000778_1): 0.094 mg/L (≈ 0.169 µM) | minimum inhibitory concentration (isolate id (sample isolate): Co000778_2): 0.047 mg/L (≈ 0.0847 µM) | minimum inhibitory concentration (isolate id (sample isolate): Co000778_3): 0.094 mg/L (≈ 0.169 µM) | minimum inhibitory concentration (isolate id (sample isolate): Co000780_4): 0.125 mg/L (≈ 0.225 µM) | minimum inhibitory concentration (isolate id (sample isolate): Co000781_1): 0.094 mg/L (≈ 0.169 µM) | minimum inhibitory concentration (isolate id (sample isolate): Co000781_3): 0.064 mg/L (≈ 0.115 µM) | minimum inhibitory concentration (isolate id (sample isolate): Co000781_4): 0.094 mg/L (≈ 0.169 µM) | minimum inhibitory concentration (isolate id (sample isolate): Co000782_2): 0.047 mg/L (≈ 0.0847 µM) | minimum inhibitory concentration (isolate id (sample isolate): Co000782_3): 0.25 mg/L (≈ 0.451 µM) | minimum inhibitory concentration (isolate id (sample isolate): Co000782_4): 0.047 mg/L (≈ 0.0847 µM) | minimum inhibitory concentration (isolate id (sample isolate): Co000783_1): 0.125 mg/L (≈ 0.225 µM) | minimum inhibitory concentration (isolate id (sample isolate): Co000783_2): 0.032 mg/L (≈ 0.0577 µM) | minimum inhibitory concentration (isolate id (sample isolate): Co000783_5): 0.032 mg/L (≈ 0.0577 µM) | minimum inhibitory concentration (isolate id (sample isolate): Co000784_1): 0.023 mg/L (≈ 0.0415 µM) | minimum inhibitory concentration (isolate id (sample isolate): Co000784_2): 0.047 mg/L (≈ 0.0847 µM) | minimum inhibitory concentration (isolate id (sample isolate): Co000784_5): 0.032 mg/L (≈ 0.0577 µM) | minimum inhibitory concentration (isolate id (sample isolate): Co000785_1): 0.047 mg/L (≈ 0.0847 µM) | minimum inhibitory concentration (isolate id (sample isolate): Co000785_2): 0.047 mg/L (≈ 0.0847 µM) | minimum inhibitory concentration (isolate id (sample isolate): Co000785_3): 0.064 mg/L (≈ 0.115 µM) | minimum inhibitory concentration (isolate id (sample isolate): Co000785_4): 0.064 mg/L (≈ 0.115 µM) | minimum inhibitory concentration (isolate id (sample isolate): Co000786_1): 0.032 mg/L (≈ 0.0577 µM) | minimum inhibitory concentration (isolate id (sample isolate): Co000786_2): 0.064 mg/L (≈ 0.115 µM) | minimum inhibitory concentration (isolate id (sample isolate): Co000787_1): 0.032 mg/L (≈ 0.0577 µM) | minimum inhibitory concentration (isolate id (sample isolate): Co000787_2): 0.023 mg/L (≈ 0.0415 µM) | minimum inhibitory concentration (isolate id (sample isolate): Co000787_4): 0.016 mg/L (≈ 0.0289 µM) | minimum inhibitory concentration (isolate id (sample isolate): Co000788_2): 0.047 mg/L (≈ 0.0847 µM) | minimum inhibitory concentration (isolate id (sample isolate): Co000788_3): 0.047 mg/L (≈ 0.0847 µM) | minimum inhibitory concentration (isolate id (sample isolate): Co000788_5): 0.016 mg/L (≈ 0.0289 µM) | minimum inhibitory concentration (isolate id (sample isolate): Co000789_1): 0.032 mg/L (≈ 0.0577 µM) | minimum inhibitory concentration (isolate id (sample isolate): Co000790_2): 0.032 mg/L (≈ 0.0577 µM) | minimum inhibitory concentration (isolate id (sample isolate): Co000790_4): 0.047 mg/L (≈ 0.0847 µM)
